Consider eleven compounds from publication PMC3738572, “Improved Bone Morphogenetic Protein-2 Retention in an Injectable Collagen Matrix Using Bifunctional Peptides” (PLoS ONE, 2013).

pEC50: −log10 of the molar value. Like-named read-outs stand apart in the source and are kept apart here. Residues, ends and D or L forms follow the SMILES beside them. *: point of attachment. Biotin = O=C1N[C@H]2[C@H](CS[C@H]2CCCCC(=O)*)N1

One test has as its target T1, rhBMP-2 (Homo sapiens, UniProt P12643).
T1 construct: purchased R&D Systems 355-BM/CF
T1 sequence (P12643 283-396): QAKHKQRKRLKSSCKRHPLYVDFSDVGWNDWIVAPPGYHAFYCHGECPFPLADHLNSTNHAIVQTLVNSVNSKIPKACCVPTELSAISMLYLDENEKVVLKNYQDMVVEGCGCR
Kind of test: BMP-2 peptide binding assay (biotinylated peptide immobilized on streptavidin plate, rhBMP-2 titrated). The source says:
To measure the ability of a BMP-binding peptide to capture its target growth factor out of buffer or a complex biological solution such as plasma, biotinylated peptides were immobilized onto a streptavidin-coated 96 well plate. Varying low nanomolar concentrations of BMP-2 were “spiked” into human plasma or Tris-buffered saline (0.5 M NaCl), 0.05% Tween-20 (TBST) and added to the peptide-containing plates. […] Adding p-NPP produced a colored reactant, which was quantified using a SpectroMax (Molecular Devices) plate reader at 405 nm.

For another test, the target named is T2, rhBMP-7 (Homo sapiens, UniProt P18075).
T2 sequence (P18075 293-431): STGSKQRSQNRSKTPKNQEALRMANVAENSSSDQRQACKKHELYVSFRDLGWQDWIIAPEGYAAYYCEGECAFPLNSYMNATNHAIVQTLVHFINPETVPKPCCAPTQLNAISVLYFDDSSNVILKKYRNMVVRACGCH
The test is described as follows: Peptide cross-reactivity to other growth factors. Type of test: binding. The settings on record: Figure 5; growth factor titrated in TBST for 1 h on immobilized peptide; antibody and p-NPP detection; read-out: EC50, BMP-7. As to the method:
(§1) To measure the ability of a BMP-binding peptide to capture its target growth factor out of buffer or a complex biological solution such as plasma, biotinylated peptides were immobilized onto a streptavidin-coated 96 well plate. Varying low nanomolar concentrations of BMP-2 were “spiked” into human plasma or Tris-buffered saline (0.5 M NaCl), 0.05% Tween-20 (TBST) and added to the peptide-containing plates. After 1 hr incubation at room temperature (RT), plates were washed and incubated with an anti-BMP-2 antibody followed by a goat anti-mouse secondary antibody conjugated to alkaline phosphatase. Adding p-NPP produced a colored reactant, which was quantified using a SpectroMax (Molecular Devices) plate reader at 405 nm.
(§2) Figure 5 Peptide cross-reactivity to other growth factors. Peptides B-17 (A) and B-18 (B) were immobilized on a streptavidin-coated plate, and a range of concentrations of growth factors in the TGF-β superfamily were titrated onto the plate in TBST for 1 h. Growth factor binding was analyzed using antibody and p-NPP detection. […] Peptide B-17 also cross-reacted with rhBMP-3, rhBMP-5, and rhBMP-12. The peptides had lower affinities for all other growth factors tested. Data are presented as the absorbance read at 405 nm.

For the next test, the target named is T3, rhBMP-6 (Homo sapiens, UniProt P22004).
T3 sequence (P22004 375-513): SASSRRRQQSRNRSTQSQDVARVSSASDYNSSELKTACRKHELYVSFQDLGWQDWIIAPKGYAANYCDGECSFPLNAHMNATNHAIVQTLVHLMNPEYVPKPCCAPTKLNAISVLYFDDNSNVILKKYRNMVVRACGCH
The test is described as follows: Peptide cross-reactivity to other growth factors. In kind it is binding. Conditions: Figure 5; growth factor titrated in TBST for 1 h on immobilized peptide; antibody and p-NPP detection; read-out: EC50, BMP-6. The method, then: as §1, §2

Another test concerns ectopic bone formation. Kind of test: In vivo ectopic bone formation study. Set-up: species or system rat. The method, then:
Male Sprague Dawley rats (150–175 g) were obtained from […], Charles River Laboratories (Raleigh, NC) and acclimated prior to surgery. The surgery was performed under general anesthesia by weight-adapted intraperitoneal injection of Xylazine 2% (Medistar; 12 mg/kg body weight) and Ketamine hydrochloride (Ketaset; 100 mg/mL; 80 mg/kg body weight). The thorax and abdomen were shaved and scrubbed with Betadine and alcohol. Using aseptic technique, two 5 mm incisions were made at the midline so that two subcutaneous pouches were prepared by blunt dissection. […] Each rat received two injections and a total of 20 animals were used in the study. […] In those experiments, rats were implanted with collagen gel containing either 1 or 5 μg of BMP-2.
The sites containing the injected material were explanted at two weeks and fixed in 10% neutral buffered formalin. The samples were placed in Formical 2000 decalcifier (American Mastertech) for 24 hours followed by Cal-arrest neutralizing solution for one hour. The tissue samples were processed in a Thermo-Electron, Shandon Excelsior Automated Tissue Processor for 14 hours. The process includes additional fixation in 10% buffered neutral formalin, dehydration through an ethanol gradient, and clearing with xylene at 40°C. Tissue was then embedded on a Leica EF 1140 H tissue embedding center in paraffin blocks for sectioning. Paraffin blocks were sectioned at 5 microns on a Reichert-Jung RM2065 microtome using Accu-Edge High Profile disposable stainless steel microtome blades. Three serial sections at intervals of 30 microns were obtained and placed on Super-frost Plus slides for hematoxylin and eosin staining (H&E). Staining was performed using a Sakura DRS-601 automatic slide stainer with a regressive Harris hematoxylin and Eosin Y Alcoholic for histological and morphological examination.
Histological sections were scored based on three criteria: Bone Cross-Sectional Area, Bone Maturity and Cellular Activity. Each segment was scored based on a 0–4 point scale by two observers (blinded to the study) who evaluated the entire implant under 10× magnification.

The target of test [1] is T4, rhBMP-2 binding to injectable collagen gel (Homo sapiens, UniProt P12643).
T4 construct: purchased R&D Systems 355-BM/CF
T4 sequence (P12643 283-396): T1 sequence (P12643 283-396)
The test is described as follows: Injectable collagen gel binding assay. The settings on record: tested for the ability to bind BMP-2 to a collagen gel. The method, then:
The injectable collagen gel (0.1 mL) was aliquoted into a polypropylene plate. The plate was blocked with 150 µl of 1% BSA in TBS for 30 min. After spinning for 2 min, the supernatant was removed without disrupting the collagen gel. […] The wells were then washed, and an alkaline phosphatase labeled goat anti-mouse secondary antibody was added. After incubation and washing, binding was measured using the chromogenic reagent p-NPP, and absorbance was read at 405 nm.

The mark [2] stands for this setting: read-out: EC50 of BMP-2 binding to immobilized peptide.
[3] abbreviates: Figure 5, growth factor titrated in TBST for 1 h on immobilized peptide, antibody and p-NPP detection, read-out: EC50, BMP-2 (cross-reactivity experiment).
[4] abbreviates: group median, 2 μg rhBMP-2 with 50-fold molar excess of peptide in collagen gel, rat, 2 weeks, p<.0001 vs no peptide.

As for `CC(C)C[C@H](NC(=O)[C@H](CO)NC(=O)[C@H](CO)NC(=O)[C@H](Cc1ccccc1)NC(=O)[C@@H](NC(=O)[C@H](CCC(=O)O)NC(=O)[C@@H](N)Cc1c[nH]c2ccccc12)C(C)C)C(=O)N[C@@H](CCC(=O)O)C(=O)N[C@@H](CO)C(=O)NCC(=O)N[C@@H](CO)C(=O)N[C@H](C(=O)NCC(=O)N[C@@H](C)C(=O)NCC(=O)N[C@@H](C)C(=O)NCC(=O)O)C(C)C` [Peptide B-8] (H-WEVFSSLESGSVGAGAG-OH), at rhBMP-2 (setting [2]), the negative-log EC50 (pEC50) is 8.27.

`CC(C)C[C@H](NC(=O)[C@H](C)NC(=O)[C@H](CO)NC(=O)[C@H](Cc1ccccc1)NC(=O)[C@H](CO)NC(=O)[C@H](CO)NC(=O)[C@H](Cc1ccccc1)NC(=O)[C@H](C)NC(=O)[C@H](CO)NC(=O)[C@H](CC(=O)O)NC(=O)[C@H](CO)NC(=O)[C@@H](N)CO)C(=O)N[C@@H](CCC(=O)O)C(=O)NCC(=O)N[C@@H](CO)C(=O)N[C@H](C(=O)N[C@H](C(=O)O)C(C)C)C(C)C` [Peptide B-6] (H-SSDSAFSSFSALEGSVV-OH) had a negative-log EC50 (pEC50) at rhBMP-2 of 8.85.

With `CC(C)C[C@H](NC(=O)[C@H](C)NC(=O)CNC(=O)CN)C(=O)NCC(=O)N[C@@H](Cc1ccccc1)C(=O)N1CCC[C@H]1C(=O)N[C@@H](CC(C)C)C(=O)N[C@@H](CCCCN)C(=O)NCC(=O)N[C@@H](CCC(=O)O)C(=O)N[C@H](C(=O)N[C@H](C(=O)N[C@@H](CCC(=O)O)C(=O)NCC(=O)N[C@@H](Cc1c[nH]c2ccccc12)C(=O)N[C@@H](C)C(=O)NCC(=O)N[C@@H](CO)C(=O)N[C@@H](CO)C(=O)NCC(=O)N[C@@H](CCCCNC(=O)CCCC[C@@H]1SC[C@@H]2NC(=O)N[C@@H]21)C(=O)O)C(C)C)C(C)C` [Peptide B-18] (H-GGALGFPLKGEVVEGWAGSSGK(Biotin)-OH), the negative-log EC50 (pEC50) on rhBMP-2 (setting [3]) was 8.55; at rhBMP-2 (setting [2]) it was 8.72; on rhBMP-7 it was 7.79; on rhBMP-6 it was 8.19.

Turning to `CC(C)C[C@H](NC(=O)[C@H](CO)NC(=O)[C@H](CO)NC(=O)[C@H](Cc1ccccc1)NC(=O)[C@H](C)NC(=O)[C@H](CO)NC(=O)[C@H](Cc1ccccc1)NC(=O)[C@H](CO)NC(=O)CNC(=O)CNC(=O)[C@@H](N)CC(=O)O)C(=O)N[C@H](C(=O)N[C@@H](Cc1c[nH]c2ccccc12)C(=O)N[C@@H](C)C(=O)N[C@@H](C)C(=O)N[C@@H](CC(=O)O)C(=O)N[C@@H](CO)C(=O)O)C(C)C` [Peptide B-10] (H-DGGSFSAFSSLVWAADS-OH), the pEC50 on rhBMP-2 (setting [2]) was 7.59.

Consider `CC(C)C[C@H](NC(=O)[C@@H]1CCCN1C(=O)[C@H](Cc1ccccc1)NC(=O)[C@H](CCCNC(=N)N)NC(=O)[C@H](CC(C)C)NC(=O)[C@@H]1CCCN1C(=O)[C@H](CCC(=O)O)NC(=O)[C@@H](N)Cc1ccccc1)C(=O)N[C@@H](CCCCN)C(=O)NCC(=O)N[C@H](C(=O)N1CCC[C@H]1C(=O)N[C@H](C(=O)O)C(C)C)C(C)C` [Peptide B-9] (H-FEPLRFPLKGVPV-OH), for which, on rhBMP-2 (setting [2]), the pEC50 was 8.24.

Consider `CC(C)C[C@H](NC(=O)[C@H](CC(=O)O)NC(=O)[C@@H](NC(=O)[C@@H](N)CO)C(C)C)C(=O)N[C@@H](Cc1ccc(O)cc1)C(=O)N[C@@H](Cc1ccccc1)C(=O)N1CCC[C@H]1C(=O)N[C@@H](CC(C)C)C(=O)N[C@@H](CCCCN)C(=O)NCC(=O)N[C@@H](CC(=O)O)C(=O)N[C@H](C(=O)N[C@H](C(=O)O)C(C)C)C(C)C` [Peptide B-12] (H-SVDLYFPLKGDVV-OH), for which, on rhBMP-2 (setting [2]), the pEC50 is 7.92.

Take `CC(C)C[C@H](NC(=O)[C@H](C)NC(=O)[C@H](CO)NC(=O)[C@H](Cc1ccccc1)NC(=O)[C@H](CO)NC(=O)[C@@H](NC(=O)[C@H](Cc1c[nH]c2ccccc12)NC(=O)[C@H](C)NC(=O)CNC(=O)[C@H](C)NC(=O)[C@H](C)NC(=O)[C@H](C)NC(=O)[C@H](CCC(=O)O)NC(=O)CNC(=O)CN)C(C)C)C(=O)N[C@@H](CCC(=O)O)C(=O)N[C@@H](CO)C(=O)O` [Peptide B-7] (H-GGEAAAGAWVSFSALES-OH): the pEC50 on rhBMP-2 (setting [2]) is 7.54.

Turning to `CC(C)C[C@H](NC(=O)[C@H](C)NC(=O)[C@H](CCC(=O)O)NC(=O)[C@H](Cc1ccccc1)NC(=O)[C@H](C)NC(=O)[C@H](CC(=O)O)NC(=O)[C@H](Cc1c[nH]c2ccccc12)NC(=O)[C@H](C)NC(=O)[C@H](CO)NC(=O)[C@H](C)NC(=O)[C@@H](NC(=O)[C@@H](NC(=O)CNC(=O)[C@H](Cc1c[nH]c2ccccc12)NC(=O)[C@@H](N)CC(=O)O)C(C)C)C(C)C)C(=O)N[C@@H](CC(=O)O)C(=O)N[C@@H](C)C(=O)O` [Peptide B-11] (H-DWGVVASAWDAFEALDA-OH), the pEC50 on rhBMP-2 (setting [2]) was 6.49.

Turning to `CC(C)C[C@H](NC(=O)[C@H](CO)NC(=O)[C@H](CO)NC(=O)[C@H](Cc1ccccc1)NC(=O)[C@H](C)NC(=O)[C@H](CCC(=O)O)NC(=O)[C@H](Cc1c[nH]c2ccccc12)NC(=O)[C@H](C)NC(=O)CNC(=O)CNC(=O)CN)C(=O)N[C@@H](CO)C(=O)NCC(=O)N[C@@H](CO)C(=O)N[C@@H](CCCNC(=N)N)C(=O)N[C@H](C(=O)NCC(=O)N[C@@H](CO)C(=O)N[C@@H](CO)C(=O)NCC(=O)N[C@@H](CCCCNC(=O)CCCC[C@@H]1SC[C@@H]2NC(=O)N[C@@H]21)C(=O)O)C(C)C` [Peptide B-17] (H-GGGAWEAFSSLSGSRVGSSGK(Biotin)-OH), the results for the negative-log EC50 (pEC50) at rhBMP-2 (setting [3]), at rhBMP-7 and on rhBMP-6 were 8.85, 7.77 and 8.89, respectively.

As to “SWWGFWNGSAAPVWSR-GSSG-AGAWEAFSSLSGSRV-GSSGK(Biotin) [BC-1]”, in the test on ectopic bone formation (setting [4]), the “Median histology score: Bone area” value is on record as 2.1 (26–35% of Implant Shows Evidence of Bone Formation), the “Median histology score: Bone maturity” value turned out to be 3.0 and the “Median histology score: Osteogenic cellular activity” value was determined as 2.6. The “Bone formation in preliminary experiments” value with ectopic bone formation (rats implanted with collagen gel containing 1 or 5 μg of BMP-2, with or without peptide, data not shown) is “bone formation at both doses”. In test [1], the “Binding of BMP-2 by bifunctional peptide” value was “bound BMP-2”.

In the case of “SWWGFWNGSAAPVWSR-GSSG-AGALGFPLKGEVVEGWA-GSSGK(Biotin) [BC-2]”, in test [1], the “Binding of BMP-2 by bifunctional peptide” value is listed as “bound BMP-2”.
